The source of these data is patent US10782295B2, “Cysteine-reactive ligand discovery in proteomes” (THE SCRIPPS RESEARCH INSTITUTE, priority 2013, dated 2020).

In this experiment the target is T1, FN3KRP (Homo sapiens, UniProt Q9HA64).
T1 construct: directly in native proteomes; endogenous in cells; host or cells: MDA-MB-231
T1 sequence (Q9HA64 1-309): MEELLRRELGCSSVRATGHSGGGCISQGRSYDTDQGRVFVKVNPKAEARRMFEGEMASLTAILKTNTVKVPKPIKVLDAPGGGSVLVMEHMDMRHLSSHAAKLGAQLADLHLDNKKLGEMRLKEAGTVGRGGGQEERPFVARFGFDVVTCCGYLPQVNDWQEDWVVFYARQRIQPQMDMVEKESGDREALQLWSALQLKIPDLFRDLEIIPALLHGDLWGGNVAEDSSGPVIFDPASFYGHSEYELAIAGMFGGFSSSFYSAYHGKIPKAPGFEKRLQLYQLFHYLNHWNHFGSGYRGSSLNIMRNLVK
Briefly: competitive isoTOP-ABPP, MDA-MB-231 soluble proteome. In kind it is binding. As to conditions: 100 μM LDE, 60 min; peptide ATGHSGGGC*ISQGR. The protocol: Here, we envisioned that isoTOP-ABPP could be advanced to discover and quantify reactions between cysteines in proteomes and any electrophilic compound. In this advanced, ‘competitive’ version of isoTOP-ABPP (FIG. 1a), a proteome is treated with an electrophile (experimental sample) or DMSO (control sample). Both proteomic samples are then labeled with the IA probe and conjugated by CuAAC to light and heavy azide-biotin tags, respectively. The light and heavy samples are then mixed and subjected to our described isoTOP-ABPP protocol for enrichment, identification, and quantification of IA-labeled cysteines^30. Electrophile-modified cysteines are quantified by measuring the MS1 chromatographic peak ratios (R values) for heavy (DMSO-treated) over light (electrophile-treated) samples, with higher R values reflecting greater sensitivity to the electrophile. In this format, competitive isoTOP-ABPP can assay electrophiles against 1000+ cysteines in parallel directly in native proteomes without requiring any chemical modification to the electrophiles themselves.
Competitive isoTOP-ABPP experiments were performed in quadruplicate using the soluble proteome of the human breast cancer cell line MDA-MB-231 cell line. Proteomes were treated with 100 μM HNE, 15d-PGJ2, or 2-HD, for 60 minutes, followed by the IA-probe (100 μM, 60 min) A total of ˜1400 cysteine reactivities were quantified across the aggregate data set, with at least 900 cysteine reactivities quantified for each LDE (FIG. 2a) more than 750 of which were quantified for all the three electrophiles.
The MDA-MB-231 cell proteome was treated with varying concentrations of HNE (5, 10, 50, 100 and 500 μM) for 60 min and then the IA-labeling profile of each reaction was quantitatively compared to a DMSO-control sample by isoTOP-ABPP.
HNE was purchased from EMD biosciences, 15d-PGJ2 was purchased from Cayman Chemicals and 2-HD was purchased from Santa Cruz Biotechnology. Proteome samples were diluted to a 4 mg protein/mL solution in PBS. For each profiling experiment, one aliquot of the proteome sample (0.5 mL) was treated with 100 μM of LDE using 5 μL of a 10 mM stock and the other aliquot was treated with 5 μL of either ethanol (for HNE and 15d-PGJ2) or DMSO (for 2-HD) as control. For the concentration-dependent profiling experiments using HNE, aliquots of the proteomes (0.5 mL each) were treated with 5, 10, 50, 100 and 500 μM of HNE using 5 μL of 0.5, 1.0, 5, 10 and 50 mM of stock solution, respectively. After 60 minutes of treatment at room temperature, both the LDE-treated and control aliquots were passed through a NAP-5 Sephadex column (GE healthcare) to remove any unreacted LDE. The volume of each aliquot was increased to 1 mL with the concentration at 2 mg/mL after this step.
Each of the control and LDE-treated proteome samples (˜2 mg protein/mL in 1 mL volume) was treated with 100 μM of IA-probe using 10 μL of a 10 mM stock in DMSO. The labeling reactions were incubated at room temperature for 1 hour. Click chemistry (acetylene-azide cycloaddition) was performed by the addition of 100 μM of either the Heavy-TEV-Tag (for the control sample) or Light-TEV-Tag (for the LDE-treated sample) (20 μL of a 5 mM stock), 1 mM TCEP (fresh 50× stock in water), 100 μM ligand (17× stock in DMSO:t-Butanol 1:4) and 1 mM CuSO4 (50× stock in water). Samples were allowed to react at room temperature for 1 hour. After the click chemistry step, the light and heavy-labeled samples were mixed together and centrifuged (5900×g, 4 min, 4° C.) to pellet the precipitated proteins.
The pellets were washed twice in cold MeOH, after which the pellet was solubilized in PBS containing 1.2% SDS via sonication and heating (5 min, 80° C.). Samples were subjected to streptavidin enrichment of probe-labeled proteins, sequential on-bead trypsin and TEV digestion, and liquid chromatography-mass spectrometry (LC-MS) analysis according to the published isoTOP-ABPP protocol^30. […]

Some results are limits rather than exact numbers.

Turning to `CCCCCCCCCCCCC/C=C/C=O` [2-HD, 2-trans-hexadecenal], the “R value (isoTOP-ABPP ratio heavy/light) for IA-labeled cysteine of FN3KRP” value (“R value (isoTOP-ABPP ratio heavy/light)” below) is reported as 1.03.
For the compound `CCCCCC(O)/C=C/C=O` (stereo not drawn) [4-HNE, 4-Hydroxynonenal], the “R value (isoTOP-ABPP ratio heavy/light)” value was more than 15.
As to `CCCCC/C=C/C=C1/C(=O)C=C[C@@H]1C/C=C\CCCC(=O)O` [PGJ2, 15-deoxy-Δ12,14-prostaglandin J2], the “R value (isoTOP-ABPP ratio heavy/light)” value is given as 1.62.
